Measurements taken from article PMC8960621, “Solution speciation and human serum protein binding of indium(III) complexes of 8-hydroxyquinoline, deferiprone and maltol” (Journal of Biological Inorganic Chemistry, 2022).

Molecular target: T1, apoTf (Homo sapiens, UniProt P02787)
T1 construct: purchased Sigma-Aldrich T2036
Assay: Fluorescence lifetime (TCSPC) of InQ3 in the presence of apoTf
Format: binding
Settings: in the presence of 0.1 – 0.3 equiv. apoTf, after 1 min waiting time
Description: Therefore, UV–vis and fluorescence emission spectra of InQ3 were recorded in the presence of increasing amounts of apoTf (Fig. 5a, b). After a short initial phase, the absorbance band of InQ3 is reduced gradually by the addition of the protein, while the development of the new band at lower wavelengths (at ca. 310 nm) refers to the liberation of HQ. Namely, there is a competition for In(III) ion between the ligand and the iron-binding sites of apoTf. Absorbance values depicted at 370 nm and 310 nm (Fig. 5c) saturate roughly to the corresponding values of the free ligand and outline a sigmoidal shape. Fluorescence intensity of the same sample set (Fig. 5b, d) was enhanced and moderately blue shifted (from λmax = 540 nm to 532 nm) until the addition of ca. 0.2 equiv. apoTf. […] Then, by the addition of more apoTf, intensities decreased and λmax shifted further to shorter wavelengths (527 nm). […] This is further supported by fluorescence lifetime measurements; where new lifetime components τ3 = 4.7 ± 0.2 ns and τ4 = 13.8 ± 0.4 ns appeared for InQ3 in the presence of 0.1 – 0.3 equiv. apoTf (after 1 min waiting time). […] Here, the sigmoid shape of the UV–vis absorbance was seen again (Fig. S5) and the shifted inflection point in comparison to the titration with apoTf underlines the lower In(III) binding capacity of Tf. […]

T1 sequence (P02787 20-698): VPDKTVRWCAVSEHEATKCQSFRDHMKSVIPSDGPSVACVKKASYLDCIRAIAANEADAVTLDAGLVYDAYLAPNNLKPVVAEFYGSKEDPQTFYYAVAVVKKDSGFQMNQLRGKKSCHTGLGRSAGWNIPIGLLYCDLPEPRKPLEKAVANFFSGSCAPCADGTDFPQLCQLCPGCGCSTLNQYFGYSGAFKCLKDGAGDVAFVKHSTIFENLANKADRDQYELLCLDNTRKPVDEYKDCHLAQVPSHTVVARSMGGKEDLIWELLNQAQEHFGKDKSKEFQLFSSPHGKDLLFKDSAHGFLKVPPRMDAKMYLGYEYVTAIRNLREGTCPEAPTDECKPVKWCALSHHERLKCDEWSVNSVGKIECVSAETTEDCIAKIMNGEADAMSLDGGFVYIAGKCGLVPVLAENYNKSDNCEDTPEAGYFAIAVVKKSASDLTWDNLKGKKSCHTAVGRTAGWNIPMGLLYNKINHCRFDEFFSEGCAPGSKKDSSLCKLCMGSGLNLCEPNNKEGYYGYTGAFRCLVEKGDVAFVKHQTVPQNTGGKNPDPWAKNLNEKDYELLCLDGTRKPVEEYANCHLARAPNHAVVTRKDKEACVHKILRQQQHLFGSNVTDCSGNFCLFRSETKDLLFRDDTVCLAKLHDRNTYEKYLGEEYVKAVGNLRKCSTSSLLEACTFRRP

Structure (SMILES): [In+3].[O-]c1cccc2cccnc12.[O-]c1cccc2cccnc12.[O-]c1cccc2cccnc12 [InQ3, Tris(8-Quinolinolato)indium(III)]
- τ3: 4.7 ± 0.2 ns
- τ4: 13.8 ± 0.4 ns
